Test results taken from patent US20130303788A1, “METHOD OF PRODUCING BIPHENOLIC COMPOUND, NOVEL BIPHENYL COMPOUND AND SYNTHESIS METHOD THEREOF, AND PHARMACEUTICAL COMPOSITION FOR TREATING PARKINSON'S DISEASE” (Tzu Chi University, priority 2012, published 2013).

Key:
[1] = tested on: mouse model of PD (6-OHDA unilateral striatal lesion); assay: Apomorphine-induced rotation test in 6-OHDA mouse model of PD; assay type: in vivo, NMRI mice
Experimental: The respective NMRI mouse was anesthetized with ketamine ([…], intraperitoneally). Subsequently, the respective NMRI mouse was placed into a stereotactic frame with nose and ear bars specially designed for mice. 6-hydroxydopamine (6-OHDA) was injected with saline containing 0.02% ascorbic acid (as a vehicle) into the right striatum of the respective NMRI mouse so that unilateral striatal lesion was induced (i.e., damage to dopaminergic neurons in the unilateral striatum was induced). The injection was conducted at a rate of 1 μL/minute using a Hamilton syringe at the following coordinates: AP: −0.9 mm; ML: −1.9 mm; DV: −2.2 mm with respect to bregma, and a final dose of 15 μg was administered. The needle was left standing for 5 minutes after the injection was finished, and was slowly withdrawn.
The respective NMRI mouse was allowed to habituate to the ambient environment for 10 minutes before the apomorphine-induced rotation test was performed. Apomorphine was then injected intraperitoneally into the respective NMRI mouse at a dose of 0.5 mg/kg. The respective NMRI mouse was placed in a glass bowl with a diameter of 20 cm and was attached to an automatic rotometer (TSE, Bad Homburg, Germany) via a specially designed harness. Each circular movement exceeding 30° was recorded. The contralateral movements (toward the nonlesioned side) and ipsilateral movements (toward the lesioned side) of the NMRI mice were counted during a period of 60 minutes. The net rotation was calculated according to the following formula:
where A=net rotation • B=the total number of ipsilateral movements during the period of 60 minutes • C=the total number of contralateral movements during the period of 60 minutes 4. Determination of TH (Tyrosine Hydroxylase) Expression Level and iNOS (Inducible Nitric Oxide Synthase) Expression Level: […]
6-OHDA was injected into NMRI mice according to the method as described in section 2 of General procedures. Product 1 or product 2 was administered intraperitoneally to the respective NMRI mouse at a dose of 5 mg/kg, 1 mg/kg, 0.5 mg/kg, 0.1 mg/kg, or 0.05 mg/kg for 14 consecutive days, starting on Day 7 after the 6-OHDA injection. NMRI mice into which a vehicle (saline containing 0.02% ascorbic acid) was injected (generally according to the method as described in section 2 of General Procedures, except that 6-OHDA was not injected), and which were not treated with product 1 or product 2 after the injection of the vehicle, served as a sham operated control. NMRI mice into which 6-OHDA was injected and which were not treated with product 1 or product 2 after the 6-OHDA injection served as a pathological control. The rotational behavior of the NMRI mice was evaluated using the apomorphine-induced rotation test as described in section 3 of General Procedures on Days 7, 14, and 21 after the 6-OHDA injection.

[2] = tested on: TH (Tyrosine Hydroxylase); assay: TH expression level (TH immunohistochemistry) in 6-OHDA mouse model of PD; assay type: in vivo, NMRI mice
Experimental: The respective NMRI mouse was deeply anaesthetized with thiopental (50 mg/kg, intraperitoneally). The respective NMRI mouse was perfused transcardially with a heparin solution (0.05% heparin in 0.1 M PBS), and was subsequently perfused with 100 mL of ice-cold fixative (4% paraformaldehyde in 0.1 M PBS). The brain of the respective NMRI mouse was removed and was postfixed in the same ice-cold fixative for 12 hours, followed by dehydration in 30% sucrose in 0.1 M PBS. The brain was frozen and was subjected to tissue slicing. Serial coronal sections (a thickness of 20 μm) were cut on a freezing microtome and were placed in PBS. The sections were later processed for free-floating TH or iNOS immunohistochemistry.
The sections were rinsed three times with PBS (30 minutes for each time), were treated with 3% H2O2/10% methanol in PBS for 30 minutes for quenching the endogenous peroxidase activity, and were rinsed three times with PBS. After preincubation with 0.5% normal goat serum (NGS)/0.2% Triton in PBS, the sections were incubated with a primary antibody (anti-TH antibody or anti-iNOS antibody, 1:5000, Novus Biologicals, Inc., Littleton, Colo., USA) in 0.5% NGS/PBS at 4° C. for 16-18 hours. After being rinsed three times with PBS, the sections were incubated with a biotinylated goat anti-rabbit IgG (1:200) in PBS for 1 hour. Subsequently, the sections were rinsed three times with PBS and were stained with 0.05% diaminobenzidine/0.03% H2O2 in PBS for 5 minutes. The respective section was placed on a gelatin-coated slide, dehydrated through ascending concentrations of alcohol, and covered with a slipcover for observation under a light microscope.
The obtained data were subjected to the statistical analysis as described in section 5 of General Procedures. TH expression level in the striatum was determined according to the method as described in section 4 of General Procedures.
TH expression level in the striatum and the substantia nigra (SN), and iNOS expression level in the striatum were determined according to the method as described in section 4 of General Procedures on Day 21 after the injection of 6-OHDA or the vehicle.
In addition, the optical density regarding the lesioned and unlesioned sites in the striatum and SN of the NMRI mice (e.g., the sham operated control, the pathological control, and the NMRI mice treated with product 1) was determined from the obtained photomicrographs illustrating TH expression level via ImageJ software (National Institutes of Health). The relative optical density was calculated using the following formula:
where J=relative optical density • K=optical density of the lesioned site • L=optical density of the unlesioned site

[3] = tested on: excitotoxicity induced by excitatory amino acids; settings: Lin Yi-Ruu et al. (2006); cited from earlier work
inflammatory pain = settings: Lin Yi-Ruu et al. (2007); cited from earlier work

Compound: C=CCc1ccc(O)c(-c2ccc(O)c(CC=C)c2)c1 [product 1, 5,3′-Diallyl-biphenyl-2,4′-diol]
- unilateral rotations (apomorphine-induced), subchronic post-treatment, 0.1 mg/kg ([1]; 0.1 mg/kg i.p., 14 consecutive days starting Day 7 after 6-OHDA, FIG. 13): not a low dose of product 1
- unilateral rotations (apomorphine-induced), subchronic post-treatment, 0.5 mg/kg ([1]; 0.5 mg/kg i.p., 14 consecutive days starting Day 7 after 6-OHDA, FIG. 13): significantly inhibited unilateral rotations
- unilateral rotations (apomorphine-induced), subchronic post-treatment, 1 mg/kg ([1]; 1 mg/kg i.p., 14 consecutive days starting Day 7 after 6-OHDA, FIG. 13): significantly inhibited unilateral rotations
- contralateral movements induced by apomorphine, subchronic treatment ([1]; 5 mg/kg or 10 mg/kg i.p. for 14 consecutive days after 6-OHDA injection, FIG. 11): significantly reduced the contralateral movements induced by apomorphine
- apomorphine-induced rotation behavior after single administration ([1]; 5 mg/kg or 10 mg/kg i.p. once, 30 minutes before 6-OHDA, tested one week after 6-OHDA, data not shown): did not prevent the apomorphine-induced rotation behavior
- TH expression level in right (lesioned) striatum vs pathological control, subchronic treatment ([2]; 5 mg/kg i.p. for 14 consecutive days after 6-OHDA injection, FIG. 12): significantly higher TH expression level
- loss of TH-ir fibers in the striatum, subchronic post-treatment ([2]; i.p. 14 consecutive days starting Day 7, Day 21 after 6-OHDA, FIGS. 14, 15(A), 16): significantly alleviated the loss of TH-ir fibers
- loss of TH-ir fibers in the substantia nigra (SN), subchronic post-treatment ([2]; i.p. 14 consecutive days starting Day 7, Day 21 after 6-OHDA, FIGS. 14, 15(B), 16): significantly alleviated the loss of TH-ir fibers
- neuroprotective effects via anti-oxidative abilities and antagonist actions against excitotoxicity [3]: able to exert neuroprotective effects
- alleviation of inflammatory pain in an animal model (inflammatory pain): effective in alleviating inflammatory pain
